Reference: patent US8242118B2, “Arylsulfonamide derivatives for use as CCR3 antagonists in the treatment of inflammatory and immunological disorders” (Axikin Pharmaceuticals Inc., priority 2001, dated 2012)

Assays:
[1] = target: T1, Human CCR3 (Homo sapiens, UniProt P51677); experiment: Calcium mobilization assay, eotaxin-stimulated; assay type: cell-based; conditions: human CCR3-transformed K562 cells, 10 nM eotaxin; compounds of about 40 to 90% purity; read-out: Activity grade Ca2+ (IC50 class)
T1 construct: The cloned CCR3 cDNA was constructed with pcDNA3 vector and transfected into a IC562 cell line; expressed in transfected cells
T1 sequence (P51677 1-355): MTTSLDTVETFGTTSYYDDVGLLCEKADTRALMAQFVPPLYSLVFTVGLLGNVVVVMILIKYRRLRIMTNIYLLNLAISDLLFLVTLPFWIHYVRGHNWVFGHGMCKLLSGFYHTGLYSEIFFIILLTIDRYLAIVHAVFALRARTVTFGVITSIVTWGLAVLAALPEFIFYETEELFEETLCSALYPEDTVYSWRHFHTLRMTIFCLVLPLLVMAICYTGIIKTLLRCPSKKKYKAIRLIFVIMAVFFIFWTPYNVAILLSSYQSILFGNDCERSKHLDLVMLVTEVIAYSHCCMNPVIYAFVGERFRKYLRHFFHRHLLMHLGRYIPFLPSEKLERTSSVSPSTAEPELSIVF
Summary of the method: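 K562 cells transfected with human CCR3, pretreated 20–24 h with 5 mM sodium butyrate, loaded with Fluo-3AM. Compound added 10 min before stimulation with 10 nM (final) eotaxin; cytoplasmic calcium read over 60 s by FDSS, IC50 from inhibition curve.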

| melting point [°C] | IC50 [1] [nM] | Structure (SMILES) |
| --- | --- | --- |
| 191 to 192 | < 1000 | O=[N+]([O-])c1ccc(Sc2cc(Cl)cc(Cl)c2)c(S(=O)(=O)N2CCC(N3CCCCC3)CC2)c1 [Example 2-3] |
| 270 | < 1000 | Cl.N[C@@H]1CCN(S(=O)(=O)c2cc([N+](=O)[O-])ccc2Sc2cc(Cl)cc(Cl)c2)C1 [Example 2-11] |
| 263 | < 1000 | N[C@H]1CCN(S(=O)(=O)c2cc([N+](=O)[O-])ccc2Sc2cc(Cl)cc(Cl)c2)C1 [Example 2-12] |
|  | < 1000 | CC1CCCCN1CCCNS(=O)(=O)c1cc([N+](=O)[O-])ccc1Sc1cc(Cl)cc(Cl)c1 (stereo not drawn) [Example 2-13] |
| 213 | < 1000 | O=[N+]([O-])c1ccc(Sc2cc(Cl)cc(Cl)c2)c(S(=O)(=O)N2CCC(N3CCCC3)CC2)c1 [Example 2-22] |
| 102 | < 1000 | CN(C)CCN(C)S(=O)(=O)c1cc([N+](=O)[O-])ccc1Sc1cc(Cl)cc(Cl)c1 [Example 2-23] |
|  | < 1000 | O=[N+]([O-])c1ccc(Sc2cc(Cl)cc(Cl)c2)c(S(=O)(=O)NCCN2CCCCC2)c1 [Example 2-24] |
|  | < 1000 | O=[N+]([O-])c1ccc(Nc2cc(Cl)cc(Cl)c2)c(S(=O)(=O)N2CCNCC2)c1 [Example 3-2] |
|  | 1000 to 10000 | Cc1ccccc1Nc1ccc([N+](=O)[O-])cc1S(=O)(=O)N1CCNCC1 [Example 3-3] |
|  | 1000 to 10000 | Cc1cccc(Nc2ccc([N+](=O)[O-])cc2S(=O)(=O)N2CCNCC2)c1 [Example 3-4] |
|  | 1000 to 10000 | Cc1ccc(Nc2ccc([N+](=O)[O-])cc2S(=O)(=O)N2CCNCC2)cc1 [Example 3-5] |
|  | 1000 to 10000 | O=[N+]([O-])c1ccc(Nc2ccccc2Cl)c(S(=O)(=O)N2CCNCC2)c1 [Example 3-6] |
|  | < 1000 | Cc1cc(C)cc(Oc2ccc([N+](=O)[O-])cc2S(=O)(=O)NCCN2CCCCC2)c1 [Example 4-2] |
|  | < 1000 | Cc1cc(C)cc(Oc2ccc([N+](=O)[O-])cc2S(=O)(=O)NCCN2CCOCC2)c1 [Example 4-3] |
| 131 to 132 | < 1000 | Cc1cc(C)cc(Oc2ccc([N+](=O)[O-])cc2S(=O)(=O)N2CCN(C)CC2)c1 [Example 4-4] |
| 111 to 112 | < 1000 | CCN1CCN(S(=O)(=O)c2cc([N+](=O)[O-])ccc2Oc2cc(C)cc(C)c2)CC1 [Example 4-5] |
| 190 to 192 | < 1000 | Cc1cc(C)cc(Oc2ccc([N+](=O)[O-])cc2S(=O)(=O)N2CCN(C3CCCCC3)CC2)c1 [Example 4-6] |
| 168 to 169 | > 10000 | Cc1cc(C)cc(Oc2ccc([N+](=O)[O-])cc2S(=O)(=O)N2CCN(c3ccccc3)CC2)c1 [Example 4-7] |
| 168 to 170 | > 10000 | Cc1ccc(N2CCN(S(=O)(=O)c3cc([N+](=O)[O-])ccc3Oc3cc(C)cc(C)c3)CC2)cc1 [Example 4-8] |
| 86 to 88 | < 1000 | CCN1CCC(N(CC)S(=O)(=O)c2cc([N+](=O)[O-])ccc2Oc2cc(C)cc(C)c2)C1 (stereo not drawn) [Example 4-12] |

| melting point [°C] | IC50 [1] [nM] | Structure (SMILES) |
| --- | --- | --- |
| 115 to 116 | < 1000 | Cc1cc(C)cc(Oc2ccc([N+](=O)[O-])cc2S(=O)(=O)N2CC[C@@H](N(C)C)C2)c1 [Example 4-13] |
| 75 to 77 | < 1000 | Cc1cc(C)cc(Oc2ccc([N+](=O)[O-])cc2S(=O)(=O)N(C)CCN(C)C)c1 [Example 4-14] |
| 129 to 131 | < 1000 | Cc1cc(C)cc(Oc2ccc([N+](=O)[O-])cc2S(=O)(=O)N2CCN(C(C)C)CC2)c1 [Example 4-15] |
| 134 to 135 | < 1000 | CCC(C)N1CCN(S(=O)(=O)c2cc([N+](=O)[O-])ccc2Oc2cc(C)cc(C)c2)CC1 (stereo not drawn) [Example 4-16] |
| 93 to 95 | < 1000 | CCCC(C)N1CCN(S(=O)(=O)c2cc([N+](=O)[O-])ccc2Oc2cc(C)cc(C)c2)CC1 (stereo not drawn) [Example 4-17] |
| 131 to 132 | 1000 to 10000 | CCC(CC)N1CCN(S(=O)(=O)c2cc([N+](=O)[O-])ccc2Oc2cc(C)cc(C)c2)CC1 [Example 4-18] |
| 169 to 171 | < 1000 | Cc1cc(C)cc(Oc2ccc([N+](=O)[O-])cc2S(=O)(=O)N2CCN(C3CCCC3)CC2)c1 [Example 4-19] |
| 105 to 107 | < 1000 | CN(C)CCN(C)S(=O)(=O)c1cc([N+](=O)[O-])ccc1Oc1cc(Cl)cc(Cl)c1 [Example 4-20] |
| 120 to 121 | < 1000 | CCN(CC)C1CCN(S(=O)(=O)c2cc([N+](=O)[O-])ccc2Oc2cc(Cl)cc(Cl)c2)C1 (stereo not drawn) [Example 4-21] |
| 200 to 202 | < 1000 | O=[N+]([O-])c1ccc(Oc2cc(Cl)cc(Cl)c2)c(S(=O)(=O)N2CCC[C@H]2CN2CCCC2)c1 [Example 4-22] |
|  | < 1000 | CN1CCC(N(C)S(=O)(=O)c2cc([N+](=O)[O-])ccc2Oc2cc(Cl)cc(Cl)c2)C1 (stereo not drawn) [Example 4-23] |
| 262 to 264 | < 1000 | Cc1cc(C)cc(Oc2ccc([N+](=O)[O-])cc2S(=O)(=O)N2CCC(N(C)C)CC2)c1.Cl [Example 4-24] |
| 178 to 179 | < 1000 | Cc1cc(C)cc(Oc2ccc([N+](=O)[O-])cc2S(=O)(=O)N2CCN(CC3CCCO3)CC2)c1 (stereo not drawn) [Example 4-26] |
| 182 to 183 | < 1000 | O=[N+]([O-])c1ccc(Oc2cc(Cl)cc(Cl)c2)c(S(=O)(=O)N2CCN(CC3CCCO3)CC2)c1 (stereo not drawn) [Example 4-27] |
| 173 to 174 | < 1000 | O=[N+]([O-])c1ccc(Oc2cc(Cl)cc(Cl)c2)c(S(=O)(=O)N2CCC(N3CCCCC3)CC2)c1 [Example 4-29] |
|  | < 1000 | Cc1cc(C)cc(Oc2ccc([N+](=O)[O-])cc2S(=O)(=O)N2CCN(CCC(F)(F)F)CC2)c1 [Example 4-33] |
| 166 to 167 | < 1000 | O=[N+]([O-])c1ccc(Oc2cc(Cl)cc(Cl)c2)c(S(=O)(=O)N2CCN(CCC(F)(F)F)CC2)c1 [Example 4-34] |
| 145 | < 1000 | COCCCN1CCN(S(=O)(=O)c2cc([N+](=O)[O-])ccc2Oc2cc(Cl)cc(Cl)c2)CC1 [Example 4-36] |
|  | < 1000 | O=[N+]([O-])c1ccc(Oc2cc(Cl)cc(Cl)c2)c(S(=O)(=O)N2CCC(N3CCCC3)C2)c1 (stereo not drawn) [Example 4-38] |
| 133 to 135 | > 10000 | Cc1cc(C)cc(Oc2ccc(N)cc2S(=O)(=O)N2CCNCC2)c1.O=C(O)C(F)(F)F [Example 5-3] |

| melting point [°C] | IC50 [1] [nM] | Structure (SMILES) |
| --- | --- | --- |
| 120 to 122 | < 1000 | CCN1CCN(S(=O)(=O)c2cc(Cl)ccc2Oc2cc(C)cc(C)c2)CC1 [Example 5-4] |
| 133 to 134 | < 1000 | CCN1CCN(S(=O)(=O)c2cc(I)ccc2Oc2cc(C)cc(C)c2)CC1 [Example 5-5] |
| 241 to 243 | < 1000 | Cc1cc(C)cc(Oc2ccc(I)cc2S(=O)(=O)N2CCNCC2)c1.Cl [Example 5-6] |
| 183 | > 10000 | Cc1cc(C)cc(Oc2cc(C)c(N)cc2S(=O)(=O)N2CCNCC2)c1.Cl.Cl [Example 5-7] |
| 116 to 118 | < 1000 | Cc1cc(C)cc(Oc2ccc(F)cc2S(=O)(=O)N2CCNCC2)c1 [Example 6-3] |
|  | > 10000 | CC(=O)Nc1ccc(Oc2cc(C)cc(C)c2)c(S(=O)(=O)N2CCNCC2)c1 [Example 7-2] |
|  | > 10000 | Cc1cc(C)cc(Oc2ccc(NC(=O)C(C)(C)C)cc2S(=O)(=O)N2CCNCC2)c1 [Example 7-3] |
|  | > 10000 | Cc1cc(C)cc(Oc2ccc(NC(=O)CC(C)C)cc2S(=O)(=O)N2CCNCC2)c1 [Example 7-4] |
|  | > 10000 | Cc1cc(C)cc(Oc2ccc(NC(=O)c3ccccc3)cc2S(=O)(=O)N2CCNCC2)c1 [Example 7-5] |
|  | > 10000 | Cc1ccc(C(=O)Nc2ccc(Oc3cc(C)cc(C)c3)c(S(=O)(=O)N3CCNCC3)c2)cc1 [Example 7-6] |
|  | 1000 to 10000 | Cc1cc(C)cc(Oc2ccc(NC(=O)c3cccc4ccccc34)cc2S(=O)(=O)N2CCNCC2)c1 [Example 7-7] |
|  | > 10000 | Cc1cc(C)cc(Oc2ccc(NC(=O)CCc3ccccc3)cc2S(=O)(=O)N2CCNCC2)c1 [Example 7-8] |
|  | > 10000 | Cc1cc(C)cc(Oc2ccc(NC(=O)c3cccs3)cc2S(=O)(=O)N2CCNCC2)c1 [Example 7-9] |
| 242 to 247 | < 1000 | Cc1cc(C)cc(Oc2ccc(S(=O)(=O)N(C)C)cc2S(=O)(=O)N2CCNCC2)c1.Cl [Example 10-2] |
| 90 to 93 | 1000 to 10000 | N#Cc1ccc(Oc2cc(Cl)cc(Cl)c2)c(S(=O)(=O)N2CCCC3CN(Cc4ccccc4)CC32)c1 (stereo not drawn) [Example 13-2] |
| 311 to 312 | < 1000 | N#Cc1ccc(Oc2cc(Cl)cc(Cl)c2)c(S(=O)(=O)N2C[C@H]3C[C@@H]2CN3)c1 [Example 13-4] |
| 163 to 165 | < 1000 | N#Cc1ccc(Oc2cc(Cl)cc(Cl)c2)c(S(=O)(=O)N2C[C@@H]3CCCN[C@@H]3C2)c1 [Example 13-5] |
| 240 | < 1000 | COCCCN1CCN(S(=O)(=O)c2cc(C#N)ccc2Oc2cc(Cl)cc(Cl)c2)CC1 [Example 13-7] |
